Reference: patent US20060276393A1, “Novel compositions for preventing and treating neurodegenerative and blood coagulation disorders” (Sirtris Pharmaceuticals, Inc., priority 2005, published 2006)
Several values for one entry are separate records, joined by “and”; a condition that tells them apart may be missing. Identical values can stand only once. Entries after “also recorded” stand apart in the source; their conditions may differ.

What was measured:
[1] = target: T1, recombinant human SIRT1 (Homo sapiens, UniProt Q96EB6); assay: SIRT1 fluorescent deacetylation assay (p53-382 acetylated peptide); type: biochemical; conditions: for SIRT1 stimulating activity (in words): 25 μM NAD+, 25 μM p53-382 acetylated peptide, compounds at 100 μM
T1 sequence (Q96EB6 1-747): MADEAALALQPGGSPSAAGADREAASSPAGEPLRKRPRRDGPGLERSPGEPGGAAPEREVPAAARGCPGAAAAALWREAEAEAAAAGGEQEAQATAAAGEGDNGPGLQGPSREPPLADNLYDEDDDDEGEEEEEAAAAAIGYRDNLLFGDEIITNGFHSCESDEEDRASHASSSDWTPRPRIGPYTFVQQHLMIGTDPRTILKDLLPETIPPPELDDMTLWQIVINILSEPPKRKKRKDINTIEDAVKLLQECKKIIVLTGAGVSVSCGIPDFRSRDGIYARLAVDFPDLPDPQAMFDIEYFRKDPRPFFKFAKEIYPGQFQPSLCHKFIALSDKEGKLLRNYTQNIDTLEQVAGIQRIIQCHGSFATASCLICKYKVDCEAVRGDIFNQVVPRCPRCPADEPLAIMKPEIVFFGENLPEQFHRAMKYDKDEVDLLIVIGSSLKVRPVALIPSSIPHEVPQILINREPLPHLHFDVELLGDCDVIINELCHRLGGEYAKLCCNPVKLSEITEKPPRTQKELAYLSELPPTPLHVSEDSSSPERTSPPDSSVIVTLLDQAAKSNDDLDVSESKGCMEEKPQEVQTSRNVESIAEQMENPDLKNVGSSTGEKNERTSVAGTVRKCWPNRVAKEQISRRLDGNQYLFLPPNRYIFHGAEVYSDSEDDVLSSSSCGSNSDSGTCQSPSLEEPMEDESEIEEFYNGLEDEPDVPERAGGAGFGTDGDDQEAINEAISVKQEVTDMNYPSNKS
From the text: Lines represent non-linear least-squares fits to the Michaelis-Menten equation. […] Lines represent non-linear least-squares fits to the Michaelis-Menten equation. […] Error bars are standard errors of the mean.
To identify compounds that modulate SIRT1 activity, a number of small molecule libraries were screened using a fluorescent deacetylation assay in 96-well plates^26. The substrate used in the assay was a fluorogenic peptide based on the sequence encompassing the p53-K382 acetylation site, a known target of SIRT1 in vivo^20,21,27. […] The small molecule libraries included analogues of nicotinamide, ε-acetyl lysine, NAD^+, nucleotides, nucleotide analogues and purinergic ligands.
His6-tagged recombinant SIRT1 and GST-tagged recombinant Sir2 were prepared as previously described^26. From 0.1 to 1 μg of SIRT1 and 1.5 μg of Sir2 were used per deacetylation assay (in 50 μl total reaction) as previously described^26.
Themed compound libraries (BIOMOL) were used for primary and secondary screening. Most polyphenol compounds were dissolved at 10 mM in dimethylsulfoxide (DMSO) on the day of the assay. For water soluble compounds and negative controls, 1% v/v DMSO was added to the assay. […] Unless otherwise indicated all initial rate measurements were means of three or more replicates, obtained with single incubation times, at which point 5% or less of the substrate initially present had been deacetylated. Calculation of net fluorescence increases included subtraction of a blank value, which in the case of Sir2 was obtained by omitting the enzyme from the reaction and in the case of SIRT1 by adding an inhibitor (200 μM suramin or 1 mM nicotinamide) to the reaction prior to the acetylated substrate. […] All error bars represent the standard error of the mean.

[2] = system: S. cerevisiae; assay: Yeast replicative lifespan; type: cell-based; conditions: for % change in yeast replicative lifespan relative to untreated organisms (10 μM): 2% (w/v) glucose YPD, untreated 100%; for Average lifespan: 10 μM compound, 2% glucose medium, wild type untreated 22.9
Description: Average lifespan for wild type, 22.9 generations, quercetin, 23.4; piceatannol. […]
All yeast strains were grown at 30° C. in complete yeast extract/bactopeptone, 2.0% (w/v) glucose (YPD) medium except where stated otherwise. Calorie restriction was induced in 0.5% glucose. Synthetic complete (SC) medium consisted of 1.67% yeast nitrogen base, 2% glucose, 40 mg/litre each of auxotrophic markers. SIR2 was integrated in extra copy and disrupted as described^5. Other strains are described elsewhere^26. For cellular deacetylation assays, HeLa S3 cells were used. U20S osteosarcoma and human embryonic kidney (HEK 293) cells were cultured adherently in Dulbecco's Modified Eagle's Medium (DMEM) containing 10% fetal calf serum (FCS) with 1.0% glutamine and 1.0% penecillin/streptomycin. HEK 293 overexpressing dominant negative SIRT1 H363Y was a gift of R. Frye (U. Pittsburgh).
Lifespan measurements were performed using PSY316AT MATα as previously described^35. All compounds for lifespan analyses were dissolved in 95% ethanol and plates were dried and used within 24 hours. Prior to lifespan analysis, cells were pre-incubated on their respective media for at least 15 hours. Following transfer to a new plate, cells were equilibrated on the medium for a minimum of 4 hours prior to micro-manipulating them. At least 30 cells were examined per experiment and each experiment was performed at least twice. Statistical significance of lifespan differences was determined using the Wilcoxon rank sum test. Differences are stated to be significant when the confidence is higher than 95%.

[3] = target: T2, SIRT1 deacetylase (BIOMOL) (Homo sapiens, UniProt Q96EB6); assay: High-throughput SIRT1 screening protocol (ICCB library); type: biochemical; conditions: positive controls; 200 μM NAD+, 5 μM Fluor de Lys-SIRT1; resveratrol 50 μM
T2 construct: purchased BIOMOL
T2 sequence (Q96EB6 1-747): T1 sequence (Q96EB6 1-747)
Description: The reaction mixture contains (final): 0.5 units/reaction SIRT1 deacetylase (BIOMOL); 200 μM NAD^+; 5 μM Fluor de Lys-SIRT1 substrate (BIOMOL); buffer (25 mM Tris/Cl, pH 8.0, 137 mM NaCl, 2.7 mM KCl, 1 mM MgCl2, and 1 mg/ml BSA). In addition, a reaction mixture containing no enzyme was made so that each well receiving compound has a corresponding “no enzyme control” well. Reactions were performed in black 384 well plates (NUNC) in a final volume of 25 μl/well.
The reactions were started by combining enzyme and substrate in a reaction mixture immediately prior to aliquoting in plates (or substrate only for “no enzyme control” plates). Mixture were aliquoted to plates using Biotek μfill (Biotek Instruments). Control mixtures were manually added to designated wells. A library compound was added at a desired concentration by pin transfer to both “with enzyme” and “no enzyme” plates. Compounds were added in at least triplicate (with enzyme reaction in duplicate and no enzyme controls) at a final concentration of roughly 50 μM. The plates were incubated at 37° C for 30-60 minutes. Then 25 μl of 1× Developer II (BIOMOL) plus 2 mM nicotinamide were added to all wells to stop the reactions. The reactions were left for at least 30 minutes at 37° C. for the signal to develop. The plates were read in a microplate-reading fluorometer capable of excitation at a wavelength in the range of 350-380 nm and detection of emitted light in the range of 440-460 nm. A read time of 0.1 sec per well was used.

[4] = system: Human 293; assay: Survival of 293 cells; conditions: 50 micromolar
From the text: The number of live cells each time point was counted using a Coulter counter.

[5] = system: HDAC; conditions: in vitro or in vivo, literature; cited from earlier work
[6] = system: D. melanogaster; assay: D. melanogaster lifespan; type: in vivo
Description: Females (a) and males (b) with loss-of-function genotype dSir2^4.5/dSir2^5.26. Females (c) and males (d) with strong hypomorphic genotype dSir2^17/dSir2^KG00871.
Survival assays were conducted independently with adult D. melanogaster in two laboratories. In the first laboratory, all trials used an yw marked wild-type strain. Larvae were reared on standard cornmeal-sugar-yeast (CSY) agar diet (cornmeal 5%, sucrose 10.5%, SAF yeast 2%, and agar 0.7%). Newly eclosed adults were placed in 1 L demography cages with approximately 75 males and 75 females. Three to four replicate 1 L demography cages were used for each treatment group in each trial. Every two days, dead flies were removed and scored, and food vials were replenished. Food vials contained cornmeal-sugar-yeast diet with SAF yeast as either 2% or 3% by weight. Test compounds in 100 μl of EtOH (or blank EtOH in controls) were mixed into melted aliquots of the adult food media to make a final concentration of 0, 10 or 100 μM. Fresh stock solutions and adult media were prepared weekly. In the second laboratory, lifespan trials were conducted with the wild type strain Canton-S, dSir2^4.5 and dSir2^5.26 (S. Smolik, University of Oregon), dSir2^17 (S. Astrom, Stockholm University, Sweden), and dSir2^KG00871 (Drosophila Stock Center, Bloomington, Ind.). Larvae for all tests were reared on standard cornmeal-sugar-yeast diet. Newly eclosed adults were incubated in plastic shell vials containing 5 ml of 15% sugar-yeast diet (15% SY) or 5% sugar-yeast (5% SY) diet (15% SY: 15% yeast, 15% sucrose, 2% agar; 5% SY: 5% yeast, 5% sucrose, 2% agar as per Ref. ^20). In all trials, ˜20 males with ˜20 females were placed into each of 10 vials/treatment group. Every two days, flies were passed into new vials and dead flies were counted. […] Final compound concentrations were 0, 10, 100 or 200 μM. Fresh stock solution and adult media was prepared weekly.

Oc1cc(O)cc(/C=C/c2ccccc2)c1 [Pinosylvin, 3,5-Dihydroxy-trans-stilbene]
SIRT1 stimulating activity (in words) [1]: did the least to decrease activity
SIRT1 stimulating activity (in words) ([1]; listed as pinosylvin): did not significantly diminish the SIRT1 activating effect
% change in yeast replicative lifespan relative to untreated organisms (10 μM) ([2]; 10 μM): 114%
activated SIRT1 [3]: 3.28 fold

Cc1ccc(/C=C/c2cc(O)cc(O)c2)cc1 [BML-228]
SIRT1 stimulating activity (in words) [1]: did the least to decrease activity
Survival of 293 cells ([4]; 0 h): 100%
Survival of 293 cells ([4]; 48 h): 46%
Survival of 293 cells ([4]; 96 h): 32%

O=C(Nc1cc(O)cc(O)c1)c1ccccc1 [BML-219, N-(3,5-Dihydroxyphenyl)benzamide]
SIRT1 stimulating activity (in words) [1]: abolished activity

Oc1cc(O)cc(/C=C/c2ccc(F)cc2)c1 [BML-212, 3,5-Dihydroxy-4′-fluoro-trans-stilbene]
% change in yeast replicative lifespan relative to untreated organisms (10 μM) ([2]; 10 μM): 98%

CSc1ccc(/C=C/c2cc(O)cc(O)c2)cc1 [BML-230]
v1/v2, ratio of BML-230-stimulated to resveratrol-stimulated SIRT1 rate ([1]; R at 500 μM): ≤ 1.4
BML-230-stimulated SIRT1 activity compared with resveratrol ([1]; dose response, 25 μM each NAD+ and p53-382 peptide, 20 min): exceeds that stimulated by resveratrol at all concentrations tested
dissociation constant of SIRT1/activator complex (comparison) ([1]; inferred from two state model, FIG. 9b): lower dissociation constant than SIRT1/resveratrol
Survival of 293 cells ([4]; 0 h): 100%
Survival of 293 cells ([4]; 48 h): 55%
Survival of 293 cells ([4]; 96 h): 57%
toxicity on 293 cells (in words) ([4]; 96 hours): least toxic on 293 cells

CCc1ccc(/C=C/c2cc(O)cc(O)c2)cc1 [BML-225]
Survival of 293 cells ([4]; 0 h): 100%
Survival of 293 cells ([4]; 48 h): 5%
Survival of 293 cells ([4]; 96 h): 8%

C/C=C1\NC(=O)[C@H]2CSSCC/C=C/[C@H](CC(=O)N[C@H](C(C)C)C(=O)N2)OC(=O)[C@H](C(C)C)NC1=O [Depsipeptide]
HDAC inhibition (in words) [5]: micromolar concentrations

Oc1cc(O)cc(/C=C/c2ccc(Cl)cc2)c1 [BML-217, 3,5-Dihydroxy-4′-chloro-trans-stilbene]
SIRT1 stimulating activity (in words) [1]: did the least to decrease activity; also recorded: did not significantly diminish the SIRT1 activating effect
% change in yeast replicative lifespan relative to untreated organisms (10 μM) ([2]; 10 μM): 90%

trichostatin A [TSA]
HDAC inhibition (in words) [5]: potent inhibitor of mammalian HDAC

depudecin
HDAC inhibition (in words) [5]: micromolar concentrations

5,7,4′-Trihydroxyflavanone [genistein]
SIRT1 stimulating activity (in words) [1]: absence of activity

Oc1cc(O)cc(/C=C/c2ccc(O)c(O)c2)c1 [piceatannol, 3,5,3′,4′-Tetrahydroxy-trans-stilbene]
stimulated SIRT1 activity ([1]; initial library screen, fluorogenic p53-K382 peptide (Table 1)): eight
effect on lifespan (in words) ([2]; 10 μM): no significant effect on lifespan
Average lifespan [2]: 24.0 generations

O=C(/C=C/c1cccc(C(=O)NO)c1)NO [CBHA, m-carboxy-cinnamic acid bishydroxamic acid]
HDAC inhibition (in words) [5]: micromolar concentration or lower

Oc1cc(O)cc(/C=C/C2CCCCC2)c1 [BML-224]
SIRT1 stimulating activity (in words) [1]: nearly as detrimental to SIRT1 stimulating activity

O=c1c(O)c(-c2ccc(O)c(O)c2)oc2cc(O)cc(O)c12 [quercetin, 3,5,7,3′,4′-Pentahydroxyflavone]
effect on lifespan (in words) ([2]; 10 μM): no significant effect on lifespan
Average lifespan [2]: 23.4 generations

NC(=O)c1cccnc1 [Nicotinamide, nicotinamide]
SIRT1 Vmax decrease ([1]; 50 μM nicotinamide, absence of resveratrol, NAD+ or acetylated peptide varied): 30% and 36%

O=c1c(O)c(-c2ccc(O)c(O)c2)oc2cc(O)ccc12 [fisetin, 3,7,3′,4′-Tetrahyddroxyflavone]
increase of average lifespan ([2]; 10 μM): 55%
maximum lifespan (in words) ([2]; 10 μM): significantly increased maximum lifespan
Average lifespan [2]: 30.0 generations
longevity on restricted diet ([6]; restricted diet): neither resveratrol nor fisetin further increased longevity
lifespan extended (maximum) ([6]; wild type Canton-S and yw, males and females, normal diet): up to 23%
